# Assay results published in patent US20220323406A1, “METHODS AND COMPOSITIONS FOR DIFFERENTIATING STEM CELLS” (Massachusetts Institute of Technology, priority 2019, published 2022).
# “Also recorded” adds a separate entry of the source.
# Legend:
# Assay type in all cases: cell-based, mouse
# intestinal organoids = test: Population RNA-sequencing of treated organoids
# Protocol: Population RNA-sequencing. Population RNA-seq was performed using a derivative of the Smart-Seq2 protocol for single cells. In brief, organoid media was aspirated and RLT+BME (Qiagen) was added to each well, and plate shaken for 30 minutes to fully lyse. Lysate was aliquoted into 4 identical fractions and stored at −80° C. until reverse transcription. RNA lysate was thawed and cleaned with a 2.2×SPRI ratio using Agencourt RNAClean XP beads (Beckman Coulter, A63987). RNA-seq was performed on a bulk population of sorted basal cells using Smart-Seq2 chemistry, starting with a 2.2×SPRI ratio cleanup. After oligo-dT priming, Maxima H Minus Reverse Transcriptase (ThermoFisher EP0753) was used to synthesize cDNA with an elongation step at 52° C. before PCR amplification (15 cycles for tissue, 18 cycles for sorted basal cells) using KAPA HiFi PCR Mastermix (Kapa Biosystems KK2602). Sequencing libraries were prepared using the Nextera XT DNA tagmentation kit (Illumina FC-131-1096) with 250 pg input for each sample. Libraries were pooled post-Nextera and cleaned using Agencourt AMPure SPRI beads with successive 0.7× and 0.8× ratio SPRIs and sequenced with an Illumina 75 Cycle NextSeq500/550v2 kit (Illumina FC-404-2005) with loading density at […], with paired end 35 cycle read structure. Samples were sequenced at an average read depth of 8.44 million reads per sample and a total of 96 samples.
# Organoid samples were aligned to the Mm10 genome and transcriptome using STAR and RSEM. […] For module scoring with the in vivo Paneth and enteroendocrine cell-defining genes, Applicants used previously published gene sets and computed per sample module scores through the Seurat package.
# [1] = test system: ENR+CD organoids, stem II/III cells; test: Single-cell RNA-sequencing (Seq-Well) of organoid differentiation time course
# Text: For time points beyond 2 days, media was refreshed every other day. Following the Seq-Well protocol Applicants followed a standard library preparation, sequencing, and alignment process (see Methods).
# Single-cell RNA-sequencing. A single-cell suspension was obtained from organoids cultured under conditions for the differentiation time course as described above. Applicants utilized the Seq-Well platform for massively parallel scRNA-seq to capture transcriptomes of single cells on barcoded mRNA capture beads. […] In brief, 20,000 cells from one organoid condition were loaded onto one array containing 100,000 barcoded mRNA capture beads. The loaded arrays containing cells and beads were then sealed using a polycarbonate membrane with a pore size of 0.01 μm, which allows for exchange of buffers but retains biological molecules confined within each microwell. Subsequent exchange of buffers allows for cell lysis, transcript hybridization, and bead recovery before performing reverse transcription en masse. Following reverse transcription and exonuclease treatment to remove excess primers, PCR amplification was carried out using KAPA HiFi PCR Mastermix with 2,000 beads per 50 μL reaction volume. Libraries were then pooled and purified using Agencourt AMPure XP beads (Beckman Coulter, A63881) by a 0.6×SPRI followed by a 0.8×SPRI and quantified using Qubit hsDNA Assay (Thermo Fisher). Libraries were constructed using the Nextera Tagmentation method on a total of 800 pg of pooled cDNA library per sample. […] Arrays were sequenced with an Illumina NovaSeq System. The read structure was paired end with Read 1 starting from a custom read 1 primer containing 20 bases with a 12 bp cell barcode and 8 bp unique molecular identifier (UMI) and Read 2 being 50 bases containing transcript information.
# Single-cell RNA-sequencing computational pipelines and analysis.
# [2] = test system: ENR+CD organoids (ISC to Paneth cell differentiation); test: Secondary (validation) screen: LYZ.S CCh-stimulated lysozyme secretion, 2.5-D 384-well ENR+CD organoids; conditions: for Dose.FC.LYZ.S: 6-day ENR+CD, vs ENR+CD+DMSO
# [3] = stem II/III, day 0.25-2, FDR<0.05
smiles,measurement,setting,value
O=C(/C=C\n1cnc(-c2cc(C(F)(F)F)cc(C(F)(F)F)c2)n1)NNc1cnccn1 [KPT-330],number of differentially expressed genes among hit compounds,intestinal organoids; ENR and ENR+CD,most differentially expressed genes
same,"secretory cell gene set scores (Paneth, goblet, EEC) from bulk transcripts","intestinal organoids; ENR+CV, ENR+CD or ENR","increase secretory cells (Paneth, goblet, and EEC)"
same,"day 6 Paneth cell odds ratio (OR), treated vs control",[1]; 160 nM KPT-330 in ENR+CD,~2
same,organoid cell type composition over differentiation time course,"[1]; 160 nM KPT-330 in ENR+CD vs ENR+CD, day 0.25-6",enhances stem conversion to mature cells; also recorded: relative depletion of stem I (and stem II & III) and enteroendocrine cells over time along with the corresponding enrichment of enterocytes and Paneth cells
same,Atf3 (ATF3) expression,[1]; KPT-330 treated vs control cells,upregulated
same,active / quiescent ISC signature in early stem cell populations,[1]; early stem II/III cells,induces a quiescent ISC signature and reduces an active ISC signature; also recorded: transition into quiescence
same,"GSEA hallmark programs: mitogen-driven signaling (E2F, MYC targets, G2M checkpoint)",[1]; [3],suppresses programs downstream of mitogen-driven signaling
same,"GSEA hallmark programs: stress response (NFkB signaling, hypoxia, inflammatory response)",[1]; [3],up-regulating programs broadly resembling a complex stress response
same,Dose.FC.LYZ.S,[2]; 0.02 uM,−0.004 log2 fold change
same,Dose.FC.LYZ.S,[2]; 0.04 uM,−0.077 log2 fold change
same,Dose.FC.LYZ.S,[2]; 0.08 uM,0.134 log2 fold change
same,Dose.FC.LYZ.S,[2]; […],0.215 log2 fold change
same,increase in stimulated LYZ secretion (LYZ.S) relative to ENR+CD control,"[2]; validated dose-treatments, mean fold change vs ENR+CD+DMSO",50-75%
